pIC50: −log10 of the molar value. Where two headings read alike, the source gives them in different places.
Tests used:
[1] = tested on: β-secretase (Aβ peptide levels); test: In vivo inhibition of β-secretase (Aβ reduction in rat CSF and brain)
From the text: In vivo Inhibition of β-Secretase
Several animal models, including mouse, rat, dog, and monkey, may be used to screen for inhibition of β-secretase activity in vivo following administration of a test compound. […] Animals to be used in this experiment can be wild type, transgenic, or gene knockout animals. For example, the Tg2576 mouse model, prepared and conducted as described in Hsiao et al., Science 274:99-102 (1996), and other non-transgenic or gene knockout animals are useful to analyze in vivo inhibition of Aβ peptide production in the presence of test compounds.
Generally, 2 to 18 month old Tg2576 mice, gene knockout mice or non-transgenic animals are administered test compounds formulated in vehicles, such as cyclodextran, phosphate buffers, hydroxypropyl methylcellulose or other suitable vehicles. One to twenty-four hours following the administration of compound, animals are sacrificed, and brains as well as cerebrospinal fluid (CSF) and plasma are removed for analysis of Aβ levels and test compound concentrations (Dovey et al., J. Neurochem., 76(1):173-181 (2001)) Beginning at time 0, animals are administered by oral gavage, or other means of delivery such as intravenous injection, an inhibitory test compound of up to 100 mg/kg in a standard, conventional formulation, such as 2% hydroxypropyl methylcellulose, 1% Tween80. A separate group of animals receive 2% hydroxypropyl methylcellulose, 1% Tween80 alone, containing no test compound, and serve as a vehicle-control group. At the end of the test period, animals are sacrificed and brain tissues, plasma or cerebrospinal fluid are collected. Brains are either homogenized in 10 volumes (w/v) of 0.2% diethylamine (DEA) in 50 mM NaCl (Best et al., J. Pharmacol. Exp. Ther. 313(2):902-908 (2005)), or in 10 volumes of 0.5% TritonX-100 in Tris-buffered saline (pH at about 7.6). Homogenates are centrifuged at 355,000 g, 4° C. for 30 minutes. CSF or brain supernatants are then analyzed for the presence of Aβ by specific sandwich ELISA assays based on ECL (Electrochemiluminescence) technology. For example, rat Aβ40 is measured using biotinylated-4G8 (Signet) as a capture antibody and Fab40 (an in-house antibody specific to the C-terminal of Aβ40) as a detection antibody. For example, 4 hours after administration of 30 mg/kg oral dose of the test compound in 2% hydroxypropyl methylcellulose, 1% Tween80 (pH2.2) to 200 g male Sprague Dawley rats, Aβ peptide levels are measured for reduction by X % and Y % in cerebrospinal fluid and brain, respectively, when compared to the levels measured in the vehicle-treated or control mice. Alternatively, the antibody sold with the V-PLEX abeta40 Peptide (4G8) Kit, commercially available from Meso Scale Diagnostics (MSD), Rockville, Md. 20850-3173 (Catalog NO. K150SJE-1) may be used in this assay.
The results presented in Table 3 were obtained using certain compounds described herein in the in vivo protocol described above.

Recombinant CatD = Recombinant CatD (Homo sapiens (Human), UniProt P07339); test: In vitro enzymatic Cathepsin D (CatD) FRET assay; assay type: biochemical; settings: read-out: Cat D Enzyme IC50
Summary of the method: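 Recombinant human CatD, expressed in CHO cells, was run in 0.05 M citrate pH 3.5 with 10% DMSO final and 5 mM CHAPS. Reactions were started with 20 nM quenched FRET peptide and incubated 1 h. Tris buffer was added to neutralize the pH before reading fluorescence at ex 500/em 580 nm.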

human recombinant BACE2 = human recombinant BACE2 (Homo sapiens (Human), UniProt Q9Y5Z0); test: In vitro enzymatic BACE2 FRET assay; assay type: biochemical; settings: read-out: BACE2 Enzyme IC50
Summary of the method: (§1)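 Ni-NTA-purified recombinant human BACE1 or BACE2 cleaved a 50 nM internally quenched peptide FRET substrate for one hour. Reactions were stopped with tris buffer raising pH to neutrality. Fluorescence was read at ex 488/em 590 nm.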

[2] = tested on: BACE1 (Aβ40 from cells stably expressing Amyloid Precursor Protein); test: In vitro BACE1 cell-based assay (Aβ40 in conditioned medium, HTRF); settings: for pIC50: Aβ40, 24 h incubation, read-out: BACE1 Cell IC50
Summary of the method: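 APP-stably expressing cells treated with compounds in 22-point dose response from 62.5 μM top concentration (0.625% final DMSO) for 24 h at 37° C in DMEM/10% FBS. Secreted Aβ40 in conditioned medium quantified by HTRF using ConfAb40 and biotinylated 6E10 with streptavidin-APC, 30-60 min at 23° C.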

human recombinant BACE1 = human recombinant BACE1 (Homo sapiens (Human), UniProt P56817); test: In vitro enzymatic BACE1 FRET assay; assay type: biochemical; settings: read-out: BACE1 Enzyme IC50
Summary of the method: as §1

[3] = tested on: Aβ peptide levels in the CSF and plasma; settings: nonhuman primates; cited from earlier work
Aβ peptide in CSF = settings: oral dose of 95 mg once daily; cited from earlier work
[4] = tested on: pigment epithelium of the rat's eye; settings: higher compound dose given for three months; cited from earlier work
[5] = tested on: CSF Aβ peptide concentrations; settings: cited from earlier work

Sequence of human recombinant BACE1 (P56817 46-501): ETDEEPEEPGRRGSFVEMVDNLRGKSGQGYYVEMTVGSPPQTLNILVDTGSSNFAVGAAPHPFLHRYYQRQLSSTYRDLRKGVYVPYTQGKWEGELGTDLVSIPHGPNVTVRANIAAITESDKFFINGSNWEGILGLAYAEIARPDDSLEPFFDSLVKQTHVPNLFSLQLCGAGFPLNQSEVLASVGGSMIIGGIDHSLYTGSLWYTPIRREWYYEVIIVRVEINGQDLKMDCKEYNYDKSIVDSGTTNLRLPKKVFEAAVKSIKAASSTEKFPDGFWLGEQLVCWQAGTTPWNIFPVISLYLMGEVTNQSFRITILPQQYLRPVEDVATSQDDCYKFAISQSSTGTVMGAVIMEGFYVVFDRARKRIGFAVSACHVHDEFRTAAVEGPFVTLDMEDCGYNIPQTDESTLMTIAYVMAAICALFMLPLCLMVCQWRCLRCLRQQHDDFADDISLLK
Sequence of Recombinant CatD (P07339 65-412): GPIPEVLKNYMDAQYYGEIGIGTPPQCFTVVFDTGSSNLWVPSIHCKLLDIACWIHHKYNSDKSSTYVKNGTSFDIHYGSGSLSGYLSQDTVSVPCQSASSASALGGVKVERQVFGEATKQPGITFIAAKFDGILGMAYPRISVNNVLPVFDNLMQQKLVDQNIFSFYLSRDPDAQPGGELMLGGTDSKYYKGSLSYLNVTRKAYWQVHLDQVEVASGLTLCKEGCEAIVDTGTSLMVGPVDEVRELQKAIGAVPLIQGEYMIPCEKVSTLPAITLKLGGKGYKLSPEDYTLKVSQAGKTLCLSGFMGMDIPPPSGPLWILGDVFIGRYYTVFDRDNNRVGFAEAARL
Sequence of human recombinant BACE2 (Q9Y5Z0 63-518): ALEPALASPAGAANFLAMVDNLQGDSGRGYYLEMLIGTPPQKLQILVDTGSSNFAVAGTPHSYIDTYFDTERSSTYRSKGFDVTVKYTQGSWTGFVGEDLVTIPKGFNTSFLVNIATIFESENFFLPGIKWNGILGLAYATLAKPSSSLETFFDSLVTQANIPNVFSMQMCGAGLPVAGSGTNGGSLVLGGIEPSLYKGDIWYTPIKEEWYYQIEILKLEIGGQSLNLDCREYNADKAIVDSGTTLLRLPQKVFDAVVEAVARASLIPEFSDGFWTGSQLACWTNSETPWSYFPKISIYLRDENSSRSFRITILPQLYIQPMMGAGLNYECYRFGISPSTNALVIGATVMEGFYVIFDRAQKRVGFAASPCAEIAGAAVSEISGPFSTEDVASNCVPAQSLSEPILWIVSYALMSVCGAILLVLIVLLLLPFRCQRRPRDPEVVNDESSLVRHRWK

With C#CCOc1cnc(/C(F)=C/c2ccc(F)c([C@]34CN(C(C)=O)C[C@H]3CSC(N)=N4)c2)cn1 [Example 118, 1-((4aR,7aS)-2-amino-7a-(2-fluoro-5-((Z)-2-fluoro-2-(5-(prop-2-yn-1-yloxy)pyrazin-2-yl)vinyl)phenyl)-4a,5,7,7a-tetrahydropyrrolo[3,4-d][1,3]thiazin-6(4H)-yl)ethanone] the “% Aβ reduction in rat CSF at 10 mpk” value [1] was 43%, the “% Aβ reduction in rat brain at 10 mpk” value [1] was 43% and the pIC50 (Recombinant CatD) was 3.90. For the same compound, the pIC50 (human recombinant BACE2) was 6.40, the pIC50 [2] was 7.70 and the pIC50 (human recombinant BACE1) was 8.13.
With N#Cc1ccc(/C(F)=C/c2ccc(F)c([C@]34CO[C@H](C(F)(F)F)[C@H]3CSC(N)=N4)c2)nc1 [Example 126, 6-((Z)-2-(3-((4aS,5S,7aS)-2-amino-5-(trifluoromethyl)-4a,5,7,7a-tetrahydro-4H-furo[3,4-d][1,3]thiazin-7a-yl)-4-fluorophenyl)-1-fluorovinyl)nicotinonitrile] the “% Aβ reduction in rat CSF at 10 mpk” value [1] was 83%, the “% Aβ reduction in rat brain at 10 mpk” value [1] was 80% and the pIC50 (Recombinant CatD) was 3.53. It also gave a pIC50 (human recombinant BACE2) of 6.48, a pIC50 [2] of 8.24 and a pIC50 (human recombinant BACE1) of 7.70.
For N#Cc1cnc(/C(F)=C/c2ccc(F)c([C@]34CO[C@H](C(F)(F)F)[C@H]3CSC(N)=N4)c2)cn1 [Example 128, 5-((Z)-2-(3-((4aS,5S,7aS)-2-amino-5-(trifluoromethyl)-4a,5,7,7a-tetrahydro-4H-furo[3,4-d][1,3]thiazin-7a-yl)-4-fluorophenyl)-1-fluorovinyl)pyrazine-2-carbonitrile], the “% Aβ reduction in rat CSF at 10 mpk” value [1] was 79%, the “% Aβ reduction in rat brain at 10 mpk” value [1] was 77% and the pIC50 (Recombinant CatD) was 3.38. For the same compound, the pIC50 (human recombinant BACE2) was 6.47, the IC50 ([2]; 24 h, read-out: BACE1 Cell IC50 (μM)) was 0.00364 µM and the pIC50 (human recombinant BACE1) was 7.81.
For C[C@H]1OC[C@]2(c3cc(NC(=O)c4cnc(C(F)F)cn4)ccc3F)N=C(N)SC[C@H]12 [Example E2609], the “Aβ peptide levels in the CSF and plasma” value [3] is listed as “significant reduction in Aβ peptide levels in the CSF and plasma”.
In the case of C[C@@]1(c2cc(NC(=O)c3ccc(C#N)cn3)ccc2F)C=CSC(N)=N1 [JNJ-54861911], the “Aβ peptide reduction in CSF” value (Aβ peptide in CSF) is listed as “up to 95%”.
For C[C@@]1(c2cc(-c3cncnc3)c(F)cc2F)CCSC(N)=N1 [LY 2811376], the eye toxicity finding [4] is listed as “damaged the pigment epithelium of the rat's eye”.
For CN1C(=N)N[C@](C)(c2cc(NC(=O)c3ccc(F)cn3)ccc2F)CS1(=O)=O [MK-8931], the “CSF Aβ peptide concentrations” value ([5]; human, in vivo) is given as “significantly reduced CSF Aβ peptide concentrations in a sustained and dose-dependent manner” and the safety profile ([5]; phase I clinical trials) is given as “excellent safety profile with no immediately noticeable side effects”.

— patent publication US11548903B2, “Bicyclic thiazine and oxazine derivatives as beta-secretase inhibitors and methods of use” (AMGEN INC., priority 2016, dated 2023)
